The values that follow come from patent US12173276B2 (Alliance for Sustainable Energy, LLC, priority 2021, dated 2024).

For the experiment, the system named is P. renovo. The experiment can be described thus: plating assay to determine phosphorus source utilization capacity. The experiment is classed as cell-based, Picochlorum renovo. As to conditions: wild-type P. renovo, agar plates, 0.313 mM phosphite addition, 5-day outgrowth. Here is the method:
FIG. 1 depicts a plating assay to determine phosphorus source utilization capacity in P. renovo.
Microalgae were cultivated under constant illumination at […] of light, 2% CO2, and constant temperature of 33° C. These conditions were utilized to generate seed cultures for transformation and outgrowth of transformants to generate clonal isolates on agar plates. Media was comprised of a modified f/2 recipe, as described previously. For phosphorus source utilization analyses, agar plates were prepared as described previously, utilizing 8.75 g/L salinity, via dilution of seawater. […] Approximately 4.75×10^8 early log phase cells were plated and incubated under the above conditions; plates were imaged after 5 days of growth.

For `O=[PH](O)O` [phosphite, Sodium phosphite dibasic pentahydrate], the “bleaching compared to control with no added phosphorus source” value is “noticeable bleaching occurred” and the “growth with phosphite as the sole phosphorus source” value was “no growth was observed”.
